Laboratory results reported in patent US12077503B2, “Substituted cyclic amides and their use as herbicides” (FMC CORPORATION, priority 2015, dated 2024).

Experiments:
Type in all cases: in vivo
[1] = system: barnyardgrass (Echinochloa crus-galli); assay: Test A preemergence; details: for Plant response rating, Barnyardgrass: preemergence; for Barnyardgrass plant response rating (0 to 100 scale): Preemergence, 0 is no effect, 100 is complete control
In short: (§1)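 Treatment is preemergence as a directed soil spray after planting, or postemergence at the one- to two-leaf stage, with test chemical in a non-phytotoxic solvent mixture plus surfactant. Plants stay in the greenhouse about 10 d before visual injury scoring on a 0 to 100 scale versus untreated controls.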

corn (Zea mays) [2] = assay: Test A preemergence; details: for Plant response rating, Corn: preemergence; for Corn plant response rating (0 to 100 scale): Preemergence, 0 is no effect, 100 is complete control
In short: as §1

[3] = system: crabgrass, large (Digitaria sanguinalis); assay: Test A preemergence; details: for Plant response rating, Crabgrass, Large: preemergence; for Crabgrass, Large plant response rating (0 to 100 scale): Preemergence, 0 is no effect, 100 is complete control
In short: as §1

[4] = system: giant foxtail (Setaria faberii); assay: Test A preemergence; details: for Plant response rating, Foxtail, Giant: preemergence; for Foxtail, Giant plant response rating (0 to 100 scale): Preemergence, 0 is no effect, 100 is complete control
In short: as §1

[5] = system: morningglory (Ipomoea spp.); assay: Test A preemergence; details: for Plant response rating, Morningglory: preemergence; for Morningglory plant response rating (0 to 100 scale): Preemergence, 0 is no effect, 100 is complete control
In short: as §1

[6] = system: pigweed (Amaranthus retroflexus); assay: Test A preemergence; details: for Plant response rating, Pigweed: preemergence; for Pigweed plant response rating (0 to 100 scale): Preemergence, 0 is no effect, 100 is complete control
[7] = system: velvetleaf (Abutilon theophrasti); assay: Test A preemergence; details: for Plant response rating, Velvetleaf: preemergence; for Velvetleaf plant response rating (0 to 100 scale): Preemergence, 0 is no effect, 100 is complete control
In short: as §1

[8] = system: wheat (Triticum aestivum); assay: Test A preemergence; details: for Plant response rating, Wheat: preemergence; for Wheat plant response rating (0 to 100 scale): Preemergence, 0 is no effect, 100 is complete control
In short: as §1

[9] = system: barnyardgrass (Echinochloa crus-galli); assay: Test A postemergence
In short: as §1

corn (Zea mays) [10] = assay: Test A postemergence
In short: as §1

[11] = system: crabgrass, large (Digitaria sanguinalis); assay: Test A postemergence
In short: as §1

[12] = system: giant foxtail (Setaria faberii); assay: Test A postemergence
In short: as §1

[13] = system: morningglory (Ipomoea spp.); assay: Test A postemergence
In short: as §1

[14] = system: pigweed (Amaranthus retroflexus); assay: Test A postemergence
In short: as §1

[15] = system: velvetleaf (Abutilon theophrasti); assay: Test A postemergence
In short: as §1

[16] = system: wheat (Triticum aestivum); assay: Test A postemergence
In short: as §1

[17] = system: barnyardgrass (Echinochloa crus-galli); assay: Test B flooded paddy test; details: Flood, 0 to 100 scale where 0 is no effect and 100 is complete control, 13 to 15 d
In short: (§2)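 Compound goes directly into floodwater once pots are flooded 3 cm above soil, targeting plants at two leaves; the water depth is then held for the test duration. Plants sit 13–15 d in a greenhouse and are rated visually, 100 denoting complete control.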

[18] = system: ducksalad (Heteranthera limosa); assay: Test B flooded paddy test; details: Flood, 0 to 100 scale where 0 is no effect and 100 is complete control, 13 to 15 d
In short: as §2

rice (Oryra sativa) = assay: Test B flooded paddy test; details: Flood, 0 to 100 scale where 0 is no effect and 100 is complete control, 13 to 15 d
In short: as §2

[19] = system: sedge, umbrella (small-flower umbrella sedge, Cyperus difformis); assay: Test B flooded paddy test; details: Flood; for Plant response rating, Sedge, Umbrella: 0 to 100 scale where 0 is no effect and 100 is complete control, 13 to 15 d
In short: as §2

[20] = 125 g ai/ha, 0 to 100 scale (0 no effect, 100 complete control)
[21] = 500 g ai/ha, postemergence, 0 to 100 scale, 0 no effect, 100 complete control
[22] = Postemergence, 125 g ai/ha, visual injury, 0 to 100 scale (0 no effect, 100 complete control), approx. 10 d
[23] = 125 g ai/ha, visual rating after approx. 10 d, 0 to 100 scale where 0 is no effect and 100 is complete control
[24] = 500 g ai/ha, 0 to 100 scale, 0 = no effect, 100 = complete control
[25] = 125 g ai/ha, postemergence, visual injury after approximately 10 d, 0 to 100 scale (0 no effect, 100 complete control)
[26] = 500 g ai/ha, postemergence, visual injury, 0 to 100 scale (0 no effect, 100 complete control), approx. 10 d

O=C1NCC(c2ccc(-c3ccccc3)cc2)C1C(=O)Nc1ccccc1C(F)(F)F (racemic) [Compound 367]
0: Plant response rating, Barnyardgrass [1, 20] | Barnyardgrass plant response rating (0 to 100 scale) ([1]; 500 g ai/ha) | Plant response rating, Corn (corn (Zea mays) [2]; [20]) | Corn plant response rating (0 to 100 scale) (corn (Zea mays) [2]; 500 g ai/ha) | Plant response rating, Crabgrass, Large [3, 20] | Crabgrass, Large plant response rating (0 to 100 scale) ([3]; 500 g ai/ha) | Plant response rating, Foxtail, Giant [4, 20] | Foxtail, Giant plant response rating (0 to 100 scale) ([4]; 500 g ai/ha) | Plant response rating, Morningglory [5, 20] | Morningglory plant response rating (0 to 100 scale) ([5]; 500 g ai/ha) | Plant response rating, Pigweed [6, 20] | Pigweed plant response rating (0 to 100 scale) ([6]; 500 g ai/ha) | Plant response rating, Velvetleaf [7, 20] | Velvetleaf plant response rating (0 to 100 scale) ([7]; 500 g ai/ha) | Plant response rating, Wheat [8, 20] | Wheat plant response rating (0 to 100 scale) ([8]; 500 g ai/ha) | Plant response rating, Barnyardgrass [9, 21] | Plant response rating, Barnyardgrass [9, 22] | Plant response rating, Corn (corn (Zea mays) [10]; [21]) | Plant response rating, Corn (corn (Zea mays) [10]; [22]) | Plant response rating, Crabgrass, Large [11, 21] | Plant response rating, Crabgrass, Large [11, 22] | Plant response rating, Foxtail, Giant [12, 21] | Plant response rating, Foxtail, Giant [12, 22] | Plant response rating, Morningglory [13, 21] | Plant response rating, Morningglory [13, 22] | Plant response rating, Pigweed [14, 21] | Plant response rating, Pigweed [14, 22] | Plant response rating, Velvetleaf [15, 21] | Plant response rating, Velvetleaf [15, 22] | Plant response rating, Wheat [16, 21] | Plant response rating, Wheat [16, 22] | Plant response rating, Barnyardgrass ([17]; 1000 g ai/ha) | Plant response rating, Ducksalad ([18]; 1000 g ai/ha) | Plant response rating, Rice (rice (Oryra sativa); 1000 g ai/ha) | Plant response rating, Sedge, Umbrella ([19]; 1000 g ai/ha)

O=C1NCC(c2cccc(O)c2)C1C(=O)Nc1ccccc1C(F)(F)F (racemic) [Compound 716]
0: Plant response rating, Barnyardgrass [1, 23] | Plant response rating, Barnyardgrass [1, 24] | Plant response rating, Corn (corn (Zea mays) [2]; [23]) | Plant response rating, Corn (corn (Zea mays) [2]; [24]) | Plant response rating, Crabgrass, Large [3, 23] | Plant response rating, Crabgrass, Large [3, 24] | Plant response rating, Foxtail, Giant [4, 23] | Plant response rating, Foxtail, Giant [4, 24] | Plant response rating, Morningglory [5, 23] | Plant response rating, Morningglory [5, 24] | Plant response rating, Pigweed [6, 23] | Plant response rating, Pigweed [6, 24] | Plant response rating, Velvetleaf [7, 23] | Plant response rating, Velvetleaf [7, 24] | Plant response rating, Wheat [8, 23] | Plant response rating, Wheat [8, 24] | Plant response rating, Barnyardgrass [9, 25] | Plant response rating, Barnyardgrass [9, 26] | Plant response rating, Corn (corn (Zea mays) [10]; [25]) | Plant response rating, Corn (corn (Zea mays) [10]; [26]) | Plant response rating, Crabgrass, Large [11, 25] | Plant response rating, Crabgrass, Large [11, 26] | Plant response rating, Foxtail, Giant [12, 25] | Plant response rating, Foxtail, Giant [12, 26] | Plant response rating, Morningglory [13, 25] | Plant response rating, Morningglory [13, 26] | Plant response rating, Pigweed [14, 25] | Plant response rating, Pigweed [14, 26] | Plant response rating, Velvetleaf [15, 25] | Plant response rating, Velvetleaf [15, 26] | Plant response rating, Wheat [16, 25] | Plant response rating, Wheat [16, 26] | Plant response rating, Barnyardgrass ([17]; 250 g ai/ha) | Plant response rating, Ducksalad ([18]; 250 g ai/ha) | Plant response rating, Rice (rice (Oryra sativa); 250 g ai/ha) | Sedge, Umbrella plant response rating ([19]; 250 g ai/ha, scale of 0 to 100 where 0 is no effect and 100 is complete control)

Nc1cccc(C2CNC(=O)C2C(=O)Nc2cccc(F)c2F)c1 (stereo not drawn) [Compound 353]
0: Plant response rating, Barnyardgrass [1, 20] | Barnyardgrass plant response rating (0 to 100 scale) ([1]; 500 g ai/ha) | Plant response rating, Corn (corn (Zea mays) [2]; [20]) | Corn plant response rating (0 to 100 scale) (corn (Zea mays) [2]; 500 g ai/ha) | Plant response rating, Crabgrass, Large [3, 20] | Crabgrass, Large plant response rating (0 to 100 scale) ([3]; 500 g ai/ha) | Plant response rating, Foxtail, Giant [4, 20] | Foxtail, Giant plant response rating (0 to 100 scale) ([4]; 500 g ai/ha) | Plant response rating, Morningglory [5, 20] | Morningglory plant response rating (0 to 100 scale) ([5]; 500 g ai/ha) | Plant response rating, Pigweed [6, 20] | Pigweed plant response rating (0 to 100 scale) ([6]; 500 g ai/ha) | Plant response rating, Velvetleaf [7, 20] | Velvetleaf plant response rating (0 to 100 scale) ([7]; 500 g ai/ha) | Plant response rating, Wheat [8, 20] | Wheat plant response rating (0 to 100 scale) ([8]; 500 g ai/ha) | Plant response rating, Barnyardgrass [9, 21] | Plant response rating, Barnyardgrass [9, 22] | Plant response rating, Corn (corn (Zea mays) [10]; [21]) | Plant response rating, Corn (corn (Zea mays) [10]; [22]) | Plant response rating, Crabgrass, Large [11, 21] | Plant response rating, Crabgrass, Large [11, 22] | Plant response rating, Foxtail, Giant [12, 21] | Plant response rating, Foxtail, Giant [12, 22] | Plant response rating, Morningglory [13, 21] | Plant response rating, Morningglory [13, 22] | Plant response rating, Pigweed [14, 21] | Plant response rating, Pigweed [14, 22] | Plant response rating, Velvetleaf [15, 21] | Plant response rating, Velvetleaf [15, 22] | Plant response rating, Wheat [16, 21] | Plant response rating, Wheat [16, 22] | Plant response rating, Barnyardgrass ([17]; 250 g ai/ha) | Plant response rating, Ducksalad ([18]; 250 g ai/ha) | Plant response rating, Rice (rice (Oryra sativa); 250 g ai/ha) | Plant response rating, Sedge, Umbrella ([19]; 250 g ai/ha)
